The numbers were not newly measured in patent US9085793B2, “Ex vivo methods to identify circulating drug metabolites with drug interaction potential” (XPD Consulting, LLC, priority 2012, dated 2015), which cites them from elsewhere.

Like-named read-outs stand apart in the source and are kept apart here.

For series [1], the system named is CYP3A. The note with it: CYP 3A; in vivo inhibitory potential of metabolite over that of parent drug.
Series [2] deals with T1, CYP3A.
T1 construct: rows headed: Ki Parent Drug (P); other: CYP 3A; parent drug; Ki Metabolite (M); metabolite; [I]/Ki Parent Drug (P); [I]/Ki Metabolite (M)
Conditions: CYP 3A; metabolite.

Series [3] concerns the target T2, CYP2D6 (Homo sapiens, UniProt P10635). The note with it: CYP 2D6; for IPM/IPP: in vivo inhibitory potential of metabolite over that of parent drug; for Ki: read-out: Ki Metabolite, metabolite.
Series [4] deals with T3, CYP2C9 (Homo sapiens, UniProt P11712).
For series [5] the following is noted: in vivo.
The target of series [6] is T3, CYP2C9. The source holds these as a separate data set.
The target of series [7] is CYP3A4 (Homo sapiens, UniProt P08684). The note with it: human hepatocytes.
In series [8] the target is T2, CYP2D6. The note with it: human hepatocytes.
The target in series [9] is T3, CYP2C9. Conditions: read-out: Ki Metabolite, CYP 2C9.
The target in series [10] is T2, CYP2D6. Conditions: human liver microsomes. For orientation: Microsomes from liver hold many membrane-bound enzymes, among them those of drug oxidation.
Setting [11] is: circulating plasma level (in vivo concentration) of metabolite.

T3 sequence (P11712 whole entry): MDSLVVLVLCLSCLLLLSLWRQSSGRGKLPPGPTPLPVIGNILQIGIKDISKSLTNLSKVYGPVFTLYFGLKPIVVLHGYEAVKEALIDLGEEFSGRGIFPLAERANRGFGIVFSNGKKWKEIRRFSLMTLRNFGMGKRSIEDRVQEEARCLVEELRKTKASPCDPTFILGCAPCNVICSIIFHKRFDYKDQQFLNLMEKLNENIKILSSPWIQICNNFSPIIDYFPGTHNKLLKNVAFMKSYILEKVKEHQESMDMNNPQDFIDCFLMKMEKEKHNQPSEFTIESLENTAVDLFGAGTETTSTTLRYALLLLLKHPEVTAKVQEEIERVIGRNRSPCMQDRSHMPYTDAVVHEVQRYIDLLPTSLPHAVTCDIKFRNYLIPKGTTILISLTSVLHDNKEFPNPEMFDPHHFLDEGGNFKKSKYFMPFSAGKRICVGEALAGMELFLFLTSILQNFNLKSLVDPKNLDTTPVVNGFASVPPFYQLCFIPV
T2 sequence (P10635 whole entry): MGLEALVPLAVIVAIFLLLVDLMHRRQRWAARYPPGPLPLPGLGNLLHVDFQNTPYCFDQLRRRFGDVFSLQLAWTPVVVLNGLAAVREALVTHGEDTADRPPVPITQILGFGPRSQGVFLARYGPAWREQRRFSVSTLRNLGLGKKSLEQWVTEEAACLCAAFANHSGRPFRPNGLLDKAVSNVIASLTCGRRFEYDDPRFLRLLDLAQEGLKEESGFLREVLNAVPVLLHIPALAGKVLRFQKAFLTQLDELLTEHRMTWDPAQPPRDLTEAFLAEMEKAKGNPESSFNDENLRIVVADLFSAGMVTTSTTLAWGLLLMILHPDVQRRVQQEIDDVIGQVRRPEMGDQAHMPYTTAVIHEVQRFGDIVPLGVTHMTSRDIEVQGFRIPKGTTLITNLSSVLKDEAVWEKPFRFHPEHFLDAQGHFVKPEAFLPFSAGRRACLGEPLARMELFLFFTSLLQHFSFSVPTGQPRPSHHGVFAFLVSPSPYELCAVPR
Chain of CYP3A4 (P08684 whole entry): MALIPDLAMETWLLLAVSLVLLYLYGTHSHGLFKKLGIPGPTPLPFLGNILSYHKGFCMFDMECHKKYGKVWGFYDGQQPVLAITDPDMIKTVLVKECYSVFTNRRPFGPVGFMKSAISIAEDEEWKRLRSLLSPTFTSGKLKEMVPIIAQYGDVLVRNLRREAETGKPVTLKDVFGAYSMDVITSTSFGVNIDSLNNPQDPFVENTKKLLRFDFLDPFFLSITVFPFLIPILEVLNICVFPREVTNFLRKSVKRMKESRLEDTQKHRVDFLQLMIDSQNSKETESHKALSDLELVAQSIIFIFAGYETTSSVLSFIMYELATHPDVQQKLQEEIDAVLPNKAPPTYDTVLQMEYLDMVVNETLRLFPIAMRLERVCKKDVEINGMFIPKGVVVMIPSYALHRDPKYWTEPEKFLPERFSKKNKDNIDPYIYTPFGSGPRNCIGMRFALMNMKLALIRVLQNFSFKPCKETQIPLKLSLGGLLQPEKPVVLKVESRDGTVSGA

By Ki is commonly meant a dissociation constant, usually derived from enzyme kinetics or from competition with a known ligand. Consider `CC(C)c1c(C(=O)Nc2ccccc2)c(-c2ccccc2)c(-c2ccc(F)cc2)n1CC[C@@H]1C[C@@H](O)CC(=O)O1` [Atorvastatin lactone], for which, in series [1], the IPM/IPP is on record as 5.5. In series [2], the Ki was 0.9 µM. The “[I] Metabolite (M)” value under setting [11] is 3e-09 M.
For `CCNCc1cc(Nc2ccnc3cc(Cl)ccc23)ccc1O` [Desethylamodiaquine], the “[I] Metabolite (M)” value under setting [11] was 8.2e-07 M. In series [3], the IPM/IPP is 5.1 and the Ki was 4.1 µM.
Consider `O=C(O)Cc1ccccc1Nc1c(Cl)cccc1Cl` [Diclofenac], for which, in series [4], the “Increase in Km on adding plasma (in words, FIG. 6)” value is listed as “relatively large increase in Km” and the “Increase in Km on addition of plasma” value was “more than 40 fold”.
`CC(NC(C)(C)C)C(O)c1cccc(Cl)c1` (centres unmarked) [Erythrobupropion]: the “[I] Metabolite (M)” value under setting [11] is 3.7e-07 M. Besides, in [3], the IPM/IPP is on record as 15.3 and the Ki was 1.7 µM.
`CNCCC(Oc1ccc(C(F)(F)F)cc1)c1ccccc1` (centres unmarked) [Fluoxetine]: in series [5], the Plasma half-life is 96 to 140 h.
`C[C@H]1NC(C)(C)CO[C@]1(O)c1cccc(Cl)c1` [Hydroxybupropion]: the “[I] Metabolite (M)” value under setting [11] is 3.2e-06 M. Besides, in [3], the IPM/IPP is 17.0 and the Ki was 13 µM.
As a reminder, the IC50 is the midpoint of a concentration-inhibition curve. For `Clc1ccc(COC(Cn2ccnc2)c2ccc(Cl)cc2Cl)c(Cl)c1` (centres unmarked) [Miconazole], the values for the IC50 in [6] and in series [6] (hepatocytes) were 2.02 ± 0.37 µM and 2.12 ± 0.37 µM, respectively.
The Km is the substrate concentration at which the rate is half of its maximum. Regarding `Cc1ncc2n1-c1ccc(Cl)cc1C(c1ccccc1F)=NC2` [Midazolam], the “Increase in Km” value in series [7] (plasma versus medium) is listed as 5.7 fold. For the same molecule, the Michaelis constant (Km) in [7] (read-out: Km Medium, cell culture medium (HMM)) was 8.11 ± 0.65 µM; in [7] (read-out: Km Plasma, human plasma) it was 45.8 ± 4.38 µM.
As for `CCCCc1oc2ccccc2c1C(=O)c1cc(I)c(OCCNCC)c(I)c1` [N-Desethylamiodarone], the “[I] Metabolite (M)” value (in vivo) is 1.5e-06 M.
`CNCCCN1c2ccccc2CCc2ccc(Cl)cc21` [N-Desmethylclomipramine]: for the setting “in vivo”, the “[I] Metabolite (M)” value is 4.9e-07 M. Further, in series [3], the IPM/IPP is listed as 4.2 and the Ki was 7.9 µM.
`CNCC(c1ccc(OC)cc1)C1(O)CCCCC1` (centres unmarked) [N-Desmethylvenlafaxine]: for the setting “in vivo”, the “[I] Metabolite (M)” value was 9.3e-07 M.
On to `NCCC(Oc1ccc(C(F)(F)F)cc1)c1ccccc1` (centres unmarked) [Norfluoxetine], for which the Plasma half-life result in [5] was “about 16 days”. Also, the Ki in [3] was 0.2 µM.
For `Cc1nc2n(c(=O)c1CCN1CCC(c3noc4cc(F)ccc34)CC1)CCCC2O` (centres unmarked) [Paliperidone], the IPM/IPP in [1] was 2.0; in series [3], 1.0. Besides, the values for the inhibition constant Ki in series [2] and in series [3] were 80 µM and 16 µM, respectively. Besides, the “[I] Metabolite (M)” value under setting [11] was 4.6e-08 M.
As for `OC(CCCN1CCC(O)(c2ccc(Cl)cc2)CC1)c1ccc(F)cc1` (centres unmarked) [Reduced haloperidol], the “[I] Metabolite (M)” value under setting [11] was 8e-09 M. For the same molecule, in series [3], the IPM/IPP was 1.3 and the Ki was 0.24 µM.
Turning to `CN[C@H]1CC[C@@H](c2ccc(Cl)c(Cl)c2)c2ccccc21` [Sertraline], the IC50 in series [8] (human plasma, read-out: IC50 Plasma) was 13.1 ± 3.49 µM; in [8] (medium, read-out: IC50 Medium), 3.1 ± 0.34 µM.
On to `Nc1ccc(S(=O)(=O)Nc2ccnn2-c2ccccc2)cc1` [Sulfaphenazole], for which, in series [6] (addition of plasma to human hepatocytes or human liver microsomes), the “IC50 increased on addition of plasma” value is reported as “more than 10 fold”.
For `O=C1C(CCSc2ccccc2)C(=O)N(c2ccccc2)N1c1ccccc1` [Sulfinpyrazone sulfide], the Ki in [9] is 27 µM.
As to `C[C@H](NC(C)(C)C)[C@@H](O)c1cccc(Cl)c1` [Threobupropion], the “[I] Metabolite (M)” value under setting [11] was 1.9e-06 M. For the same molecule, in [3], the IPM/IPP was 24.8 and the Ki is 5.4 µM.
As for `COc1ccc2c(c1)[C@]13CCCC[C@@H]1[C@H](C2)N(C)CC3` [dextromethorphan], in series [10], the “Increase in Km on adding plasma (in words, FIG. 6)” value was “relatively small increase in Km” and the “Increase in Km on addition of plasma” value was “less than six”.
